Data set [1] has as its target T1, breast cancer resistance protein (BCRP/ABCG2) (Homo sapiens, UniProt Q9UNQ0).
T1 sequence (Q9UNQ0 1-655): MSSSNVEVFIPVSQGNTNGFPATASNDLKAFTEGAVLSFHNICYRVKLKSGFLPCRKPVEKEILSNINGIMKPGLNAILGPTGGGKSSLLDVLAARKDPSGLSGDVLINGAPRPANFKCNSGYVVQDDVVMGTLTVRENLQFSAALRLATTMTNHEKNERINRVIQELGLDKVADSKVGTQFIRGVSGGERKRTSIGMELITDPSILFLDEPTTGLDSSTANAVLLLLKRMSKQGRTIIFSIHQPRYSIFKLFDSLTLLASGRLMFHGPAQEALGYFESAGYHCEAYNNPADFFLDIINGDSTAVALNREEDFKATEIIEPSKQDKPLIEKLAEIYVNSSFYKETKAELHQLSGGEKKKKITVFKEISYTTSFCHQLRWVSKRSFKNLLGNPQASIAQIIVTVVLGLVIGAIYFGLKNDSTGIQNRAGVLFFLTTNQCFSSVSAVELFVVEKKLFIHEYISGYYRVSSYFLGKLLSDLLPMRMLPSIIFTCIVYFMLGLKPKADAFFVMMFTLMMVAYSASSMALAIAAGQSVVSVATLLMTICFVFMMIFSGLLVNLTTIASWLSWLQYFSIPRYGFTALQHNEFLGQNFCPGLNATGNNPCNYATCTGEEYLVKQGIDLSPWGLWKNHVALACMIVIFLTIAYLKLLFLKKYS
Briefly: Ko143-sensitive accumulation in HEK293-ABCG2 cells, confocal microscopy; efflux by flow cytometry. The class given is cell-based.

Data set [2] addresses T1, breast cancer resistance protein (BCRP/ABCG2). Briefly: cell-based.

For the compound `C=Cc1c(C)c2cc3nc(c4c5[nH]c(cc6nc(cc1[nH]2)C(C)=C6CC)c(C)c5C(=O)[C@@H]4C(=O)OC)[C@@H](CCC(=O)O)[C@@H]3C` [compound 2, pheophorbide a], the “Ko143-sensitive accumulation in HEK293-ABCG2 cells, confocal microscopy; efflux” value in data set [1] is “ABCG2 inhibition by Ko143 caused an intracellular accumulation of hoechst and pheophorbide a (Figure S1)”.

For orientation: IC50 means the point on the concentration scale where inhibition reaches its midpoint. A higher IC50 goes with weaker potency. Compound `O=C(/C=C/c1ccccc1)c1ccccc1` [compound 5, Chalcone (5)] yielded an IC50 in data set [2] of 2210 ± 500 nM.
